The values that follow come from ChEMBL document CHEMBL3046339, “Insecticidal activity of Maytenus species (Celastraceae) nortriterpene quinone methides against codling moth, Cydia pomonella (L.) (Lepidoptera: tortricidae)” (2000).

The mortality is the percentage killed.

Holding throughout (format): functional
Assay [1] relates to Cydia pomonella. The assay can be described thus: Insecticidal activity against Cydia pomonella (codling moth) at 18 mg/kg assessed as growth regulation measured as number of head capsules of larvae after 10 days of continuous exposure Rvb = (1.5 +/- 0.2%).
The test system of assay [2] is Cydia pomonella. The assay is described as follows: Insecticidal activity against Cydia pomonella (codling moth) at 12 mg/kg assessed as growth regulation measured as number of head capsules of larvae after 10 days of continuous exposure Rvb = (1.5 +/- 0.2%).
Assay [3] has as its system Cydia pomonella. The assay is described as follows: Insecticidal activity against Cydia pomonella (codling moth) at 8 mg/kg assessed as growth regulation measured as number of head capsules of larvae after 10 days of continuous exposure Rvb = (1.5 +/- 0.2%).
Assay [4] deals with Cydia pomonella. The assay can be described thus: Antifeedant activity against Cydia pomonella (codling moth) at 20 mg/kg diet topically measured after 10 days of continuous exposure (reference value: 6.7 +/- 6.7%).
Assay [5] relates to Cydia pomonella. The assay can be described thus: Antifeedant activity against Cydia pomonella (codling moth) at 16 mg/kg diet topically measured after 10 days of continuous exposure (reference value: 6.7 +/- 6.7%).
Assay [6] relates to Cydia pomonella. The assay can be described thus: Antifeedant activity against Cydia pomonella (codling moth) at 12 mg/kg diet topically measured after 10 days of continuous exposure (reference value: 6.7 +/- 6.7%).
For assay [7], the system named is Cydia pomonella. The assay can be described thus: Antifeedant activity against Cydia pomonella (codling moth) at 4 mg/kg diet topically measured after 10 days of continuous exposure (reference value: 6.7 +/- 6.7%).
For assay [8], the system named is Cydia pomonella. The assay is described as follows: Antifeedant activity against Cydia pomonella (codling moth) at 1 mg/kg diet topically measured after 10 days of continuous exposure (reference value: 6.7 +/- 6.7%).
The subject of assay [9] is Cydia pomonella. The assay is described as follows: Antifeedant activity against Cydia pomonella (codling moth) at 16 mg/kg diet topically measured after 5 days of continuous exposure (reference value: 6.7 +/- 6.7%).
For assay [10], the system named is Cydia pomonella. The assay is described as follows: Antifeedant activity against Cydia pomonella (codling moth) at 6 mg/kg diet topically measured after 5 days of continuous exposure (reference value: 6.7 +/- 6.7%).
The subject of assay [11] is Cydia pomonella. The assay is described as follows: Antifeedant activity against Cydia pomonella (codling moth) at 2 mg/kg diet topically measured after 5 days of continuous exposure (reference value: 6.7 +/- 6.7%).
For assay [12], the system named is Cydia pomonella. The assay is described as follows: Insecticidal activity against Cydia pomonella (codling moth) assessed as mortality at 16 mg/kg diet topically measured after 10 days of continuous exposure (reference value: 3.3 +/- 3.3%). The settings on record: topical, 240 h.
Assay [13] relates to Cydia pomonella. The assay is described as follows: Insecticidal activity against Cydia pomonella (codling moth) assessed as mortality at 12 mg/kg diet topically measured after 10 days of continuous exposure (reference value: 3.3 +/- 3.3%). Particulars: topical, 240 h.
Assay [14] deals with Cydia pomonella. The assay can be described thus: Insecticidal activity against Cydia pomonella (codling moth) assessed as mortality at 8 mg/kg diet topically measured after 10 days of continuous exposure (reference value: 3.3 +/- 3.3%). The settings on record: topical, 240 h.
Assay [15] has as its system Cydia pomonella. The assay can be described thus: Insecticidal activity against Cydia pomonella (codling moth) at 18 mg/kg assessed as growth regulation measured as number of head capsules of larvae after 5 days of continuous exposure (reference value: 0.2 +/- 0.2%).
Assay [16] relates to Cydia pomonella. The assay can be described thus: Insecticidal activity against Cydia pomonella (codling moth) at 20 mg/kg assessed as growth regulation measured as number of head capsules of larvae after 5 days of continuous exposure (reference value: 0.2 +/- 0.2%).
Assay [17] deals with Cydia pomonella. The assay is described as follows: Insecticidal activity against Cydia pomonella (codling moth) at 16 mg/kg assessed as growth regulation measured as number of head capsules of larvae after 5 days of continuous exposure (reference value: 0.2 +/- 0.2%).
Assay [18] concerns Cydia pomonella. The assay is described as follows: Insecticidal activity against Cydia pomonella (codling moth) at 8 mg/kg assessed as growth regulation measured as number of head capsules of larvae after 5 days of continuous exposure (reference value: 0.2 +/- 0.2%).
The test system of assay [19] is Cydia pomonella. The assay can be described thus: Insecticidal activity against Cydia pomonella (codling moth) at 6 mg/kg assessed as growth regulation measured as number of head capsules of larvae after 5 days of continuous exposure (reference value: 0.2 +/- 0.2%).
The subject of assay [20] is Cydia pomonella. The assay can be described thus: Insecticidal activity against Cydia pomonella (codling moth) assessed as mortality at 6 mg/kg diet topically measured after 5 days of continuous exposure (reference value: 0%). Particulars: topical, 120 h.

With `CC1=C(O)C(=O)C=C2C1=CC=C1[C@@]2(C)CC[C@@]2(C)[C@@H]3C[C@](C)(O)C(=O)C[C@]3(C)CC[C@]12C` [20ALPHA-HYDROXYTINGENONE], the Activity turned out to be 0 in the assay with Cydia pomonella [1]; 0.3 in the assay on Cydia pomonella [2]; 0.2 with Cydia pomonella [3]; 100% in the assay on Cydia pomonella [4]; 100% with Cydia pomonella [5]; 90% in the assay on Cydia pomonella [6]. Further, the Activity was determined as 33.3% in the assay on Cydia pomonella [7]; 6.7% in the assay with Cydia pomonella [8]; 100% in the assay on Cydia pomonella [9]; 83.3% in the assay on Cydia pomonella [10]; 36.7% with Cydia pomonella [11]; 0 in the assay on Cydia pomonella [15]. The Activity with Cydia pomonella [16], with Cydia pomonella [17], in the assay on Cydia pomonella [18] and in the assay on Cydia pomonella [19] was 0 throughout. Moreover, the mortality at 16 mg/kg in the assay with Cydia pomonella [12] worked out at 93.3%. In addition, the mortality at 12 mg/kg in the assay on Cydia pomonella [13] was found to be 60%. The mortality at 8 mg/kg with Cydia pomonella [14] came out at 43.3%. For the same molecule, in the assay with Cydia pomonella [20], the mortality at 6 mg/kg was found to be 10%.
